Activity calls are given as the source filed them. How the calls were made is not given here.
System: rodent lifetime carcinogenesis bioassay, tumor incidence TD50
Experiment: chronic cancer bioassays in animals – CPDB, compiled studies (AID 1745844)

COc1cc(-c2ccc(N)c(OC)c2)ccc1N
carcinogen call (mouse, strain BALB/cStCrlfC3Hf/Nctr, females, in drinking water, site: Harderian gland, lesion: adenoma, dosed 78 weeks, study length 78 weeks): negative (inactive) | carcinogen call (mouse, strain BALB/cStCrlfC3Hf/Nctr, females, in drinking water, site: Harderian gland, lesion: adenoma, dosed 112 weeks, study length 112 weeks): negative (inactive) | carcinogen call (mouse, strain BALB/cStCrlfC3Hf/Nctr, females, in drinking water, site: Harderian gland, lesion: carcinoma, dosed 78 weeks, study length 78 weeks): negative (inactive) | TD50 (mouse, strain BALB/cStCrlfC3Hf/Nctr, males, in drinking water, site: Harderian gland, lesion: adenoma, dosed 78 weeks, study length 78 weeks): 3560 mg/kg/day (inactive) | carcinogen call (mouse, strain BALB/cStCrlfC3Hf/Nctr, males, in drinking water, site: Harderian gland, lesion: adenoma, dosed 112 weeks, study length 112 weeks): negative (inactive) | TD50 (mouse, strain ICR/Jcl, males, in feed, site: liver, lesion: hepatoma, dosed 65 weeks, study length 65 weeks): 73.8 mg/kg/day | TD50 (rat, strain Fischer 344, females, in drinking water, site: Zymbal's gland, lesion: adenoma + carcinoma + carcinoma, bilateral, dosed 91 weeks, study length 93 weeks): 6.74 mg/kg/day | TD50 (rat, strain Fischer 344, females, in drinking water, site: Zymbal's gland, lesion: adenoma, dosed 91 weeks, study length 93 weeks): 27.5 mg/kg/day | TD50 (rat, strain Fischer 344, females, in drinking water, site: Zymbal's gland, lesion: carcinoma + carcinoma, bilateral, dosed 91 weeks, study length 93 weeks): 8.41 mg/kg/day | TD50 (rat, strain Fischer 344, females, in drinking water, site: all sites, lesion: mononuclear-cell leukemia, dosed 91 weeks, study length 93 weeks): 6.71 mg/kg/day | TD50 (rat, strain Fischer 344, females, in drinking water, site: any site (literature study), lesion: several types, types named in the paper, dosed 91 weeks, study length 93 weeks): 1.09 mg/kg/day | TD50 (rat, strain Fischer 344, females, in drinking water, site: cervix uteri + uterus, lesion: carcinoma + papillary adenoma + adenoma, dosed 91 weeks, study length 93 weeks): 14 mg/kg/day | TD50 (rat, strain Fischer 344, females, in drinking water, site: cervix uteri + uterus, lesion: papillary adenoma + adenoma, dosed 91 weeks, study length 93 weeks): 15.8 mg/kg/day | TD50 (rat, strain Fischer 344, females, in drinking water, site: clitoral gland + cervix uteri + colon, descending + liver + mammary gland + palate + pharynx + rectum + skin + tongue + uterus + Zymbal's glan, lesion: adenoma + adenoma, bilateral + carcinoma + carcinoma, bilateral + papillary adenoma + adenocarcinoma + adenomatous polyp + hepatocellu, dosed 91 weeks, study length 93 weeks): 1.19 mg/kg/day | TD50 (rat, strain Fischer 344, females, in drinking water, site: clitoral gland, lesion: adenoma + adenoma, bilateral + carcinoma + carcinoma, bilateral, dosed 91 weeks, study length 93 weeks): 1.6 mg/kg/day | TD50 (rat, strain Fischer 344, females, in drinking water, site: clitoral gland, lesion: adenoma + adenoma, bilateral, dosed 91 weeks, study length 93 weeks): 3.84 mg/kg/day | TD50 (rat, strain Fischer 344, females, in drinking water, site: clitoral gland, lesion: carcinoma + carcinoma, bilateral, dosed 91 weeks, study length 93 weeks): 2.62 mg/kg/day | TD50 (rat, strain Fischer 344, females, in drinking water, site: colon, descending + rectum, lesion: adenocarcinoma + adenomatous polyp, dosed 91 weeks, study length 93 weeks): 44.3 mg/kg/day | TD50 (rat, strain Fischer 344, females, in drinking water, site: liver, lesion: hepatocellular adenoma + hepatocellular carcinoma + neoplastic nodule, dosed 91 weeks, study length 93 weeks): 33.3 mg/kg/day | TD50 (rat, strain Fischer 344, females, in drinking water, site: liver, lesion: hepatocellular carcinoma + neoplastic nodule, dosed 91 weeks, study length 93 weeks): 33.3 mg/kg/day | TD50 (rat, strain Fischer 344, females, in drinking water, site: mammary gland, lesion: adenocarcinoma + adenoma + fibroadenoma, dosed 91 weeks, study length 93 weeks): 3.24 mg/kg/day | TD50 (rat, strain Fischer 344, females, in drinking water, site: mammary gland, lesion: adenocarcinoma, dosed 91 weeks, study length 93 weeks): 7.7 mg/kg/day | TD50 (rat, strain Fischer 344, females, in drinking water, site: mammary gland, lesion: adenoma + fibroadenoma, dosed 91 weeks, study length 93 weeks): 6.22 mg/kg/day | TD50 (rat, strain Fischer 344, females, in drinking water, site: mammary gland, lesion: fibroadenoma, dosed 91 weeks, study length 93 weeks): 7.05 mg/kg/day | TD50 (rat, strain Fischer 344, females, in drinking water, site: palate + pharynx + tongue, lesion: squamous-cell carcinoma + squamous-cell papilloma, dosed 91 weeks, study length 93 weeks): 13.8 mg/kg/day | TD50 (rat, strain Fischer 344, females, in drinking water, site: palate + tongue, lesion: squamous-cell carcinoma, dosed 91 weeks, study length 93 weeks): 113 mg/kg/day | TD50 (rat, strain Fischer 344, females, in drinking water, site: palate + tongue, lesion: squamous-cell papilloma, dosed 91 weeks, study length 93 weeks): 16.6 mg/kg/day | TD50 (rat, strain Fischer 344, females, in drinking water, site: palate, lesion: squamous-cell carcinoma + squamous-cell papilloma, dosed 91 weeks, study length 93 weeks): 45.3 mg/kg/day | TD50 (rat, strain Fischer 344, females, in drinking water, site: palate, lesion: squamous-cell papilloma, dosed 91 weeks, study length 93 weeks): 47.8 mg/kg/day | TD50 (rat, strain Fischer 344, females, in drinking water, site: pituitary gland, lesion: adenoma + pars distalis adenoma + pars distalis carcinoma, dosed 91 weeks, study length 93 weeks): 9.4 mg/kg/day | TD50 (rat, strain Fischer 344, females, in drinking water, site: pituitary gland, lesion: adenoma + pars distalis adenoma, dosed 91 weeks, study length 93 weeks): 8.84 mg/kg/day | TD50 (rat, strain Fischer 344, females, in drinking water, site: skin, lesion: basal-cell adenoma + basal-cell carcinoma, dosed 91 weeks, study length 93 weeks): 10.2 mg/kg/day | TD50 (rat, strain Fischer 344, females, in drinking water, site: skin, lesion: basal-cell adenoma, dosed 91 weeks, study length 93 weeks): 12.3 mg/kg/day | TD50 (rat, strain Fischer 344, females, in drinking water, site: tongue, lesion: squamous-cell carcinoma + squamous-cell papilloma, dosed 91 weeks, study length 93 weeks): 19.9 mg/kg/day | TD50 (rat, strain Fischer 344, females, in drinking water, site: uterus, lesion: endometrial stromal polyp, dosed 91 weeks, study length 93 weeks): 11.6 mg/kg/day | TD50 (rat, strain Fischer 344, males, in drinking water, site: Zymbal's gland, lesion: adenoma + adenoma, bilateral + carcinoma + carcinoma, bilateral, dosed 88 weeks, study length 92 weeks): 3.02 mg/kg/day | TD50 (rat, strain Fischer 344, males, in drinking water, site: Zymbal's gland, lesion: adenoma + adenoma, bilateral, dosed 88 weeks, study length 92 weeks): 5.84 mg/kg/day | TD50 (rat, strain Fischer 344, males, in drinking water, site: Zymbal's gland, lesion: carcinoma + carcinoma, bilateral, dosed 88 weeks, study length 92 weeks): 6.71 mg/kg/day | TD50 (rat, strain Fischer 344, males, in drinking water, site: adrenal medulla, lesion: pheochromocytoma benign, bilateral + pheochromocytoma, benign, dosed 88 weeks, study length 92 weeks): 2.06 mg/kg/day

— PubChem BioAssay AID1745844 (Carcinogenic Potency Database (CPDB), 2022)
